Data on one compound can be found in paper PMC12473510, “Multidisciplinary Bioanalytical Approach to Assess the Anti-Aging Properties of Flower Petals—A Promising Sustainable Cosmetic Ingredient” (Plants, 2025).

The target of the assay is T1, porcine pancreatic elastase (PPE) (Sus scrofa, UniProt P00772).
T1 construct: gene CELA1; commercial native enzyme from porcine pancreas (Sigma Aldrich); PDB 1QGF printed for the docking model of PPE
The experiment in a line: spectrophotometric, p-nitroaniline release at […] nm. As to conditions: read-out: IC50 Values / EI (μg/mL) (converted). The class given is biochemical.

T1 sequence (P00772 27-266): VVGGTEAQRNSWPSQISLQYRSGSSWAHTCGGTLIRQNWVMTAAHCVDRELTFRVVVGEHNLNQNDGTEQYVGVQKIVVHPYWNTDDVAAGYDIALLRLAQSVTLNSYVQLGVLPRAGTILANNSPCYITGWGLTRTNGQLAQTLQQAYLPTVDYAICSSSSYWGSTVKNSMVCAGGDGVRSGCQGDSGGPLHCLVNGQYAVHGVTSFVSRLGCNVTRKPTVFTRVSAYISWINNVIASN

Consider `O=C(O[C@@H]1Cc2c(O)cc(O)cc2O[C@@H]1c1cc(O)c(O)c(O)c1)c1cc(O)c(O)c(O)c1` [epigallocatechin gallate], for which the IC50 was 759 µM.
